How the values were obtained:
[1] = molecular target: T1, E. coli glutamine synthetase (rE. coli GS) (Escherichia coli, UniProt P0A9C5); experiment: feedback inhibition enzyme assay at […]; format: biochemical
T1 construct: gene glnA; recombinant with 6xHis tag
T1 sequence (P0A9C5 2-469): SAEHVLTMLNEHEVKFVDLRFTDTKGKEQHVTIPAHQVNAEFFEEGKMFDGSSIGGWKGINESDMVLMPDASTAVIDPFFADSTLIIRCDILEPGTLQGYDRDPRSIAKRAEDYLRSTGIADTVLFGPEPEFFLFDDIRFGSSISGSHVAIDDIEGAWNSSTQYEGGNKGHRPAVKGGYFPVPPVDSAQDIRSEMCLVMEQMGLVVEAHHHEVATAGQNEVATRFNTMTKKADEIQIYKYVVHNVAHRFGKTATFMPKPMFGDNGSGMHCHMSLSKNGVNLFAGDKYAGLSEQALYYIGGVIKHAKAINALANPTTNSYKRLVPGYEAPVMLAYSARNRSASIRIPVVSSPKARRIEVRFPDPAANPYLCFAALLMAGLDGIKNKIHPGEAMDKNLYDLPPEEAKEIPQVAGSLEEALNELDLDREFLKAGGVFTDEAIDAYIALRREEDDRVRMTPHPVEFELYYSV

[2] = molecular target: T2, Plasmodium falciparum glutamine synthetase lacking first peptide insert (ΔI1rPfGS) (Plasmodium falciparum, UniProt C0H551, DEL174-196); format: biochemical
T2 construct: gene PF3D7_0922600; recombinant, 6xHis tag, first peptide insert (amino acids 174–196) deleted

[3] = molecular target: T3, Plasmodium berghei glutamine synthetase (rPbGS) (Plasmodium berghei, UniProt A0A509ANX1); experiment: GS enzyme assay (Pi release/HPLC) with pre-incubation with ATP and MgCl2; kinetic Ki; format: biochemical
T3 construct: gene PBANKA_0823500; recombinant with N-terminal 6xHis tag, expressed in E. coli
T3 sequence (A0A509ANX1 1-553): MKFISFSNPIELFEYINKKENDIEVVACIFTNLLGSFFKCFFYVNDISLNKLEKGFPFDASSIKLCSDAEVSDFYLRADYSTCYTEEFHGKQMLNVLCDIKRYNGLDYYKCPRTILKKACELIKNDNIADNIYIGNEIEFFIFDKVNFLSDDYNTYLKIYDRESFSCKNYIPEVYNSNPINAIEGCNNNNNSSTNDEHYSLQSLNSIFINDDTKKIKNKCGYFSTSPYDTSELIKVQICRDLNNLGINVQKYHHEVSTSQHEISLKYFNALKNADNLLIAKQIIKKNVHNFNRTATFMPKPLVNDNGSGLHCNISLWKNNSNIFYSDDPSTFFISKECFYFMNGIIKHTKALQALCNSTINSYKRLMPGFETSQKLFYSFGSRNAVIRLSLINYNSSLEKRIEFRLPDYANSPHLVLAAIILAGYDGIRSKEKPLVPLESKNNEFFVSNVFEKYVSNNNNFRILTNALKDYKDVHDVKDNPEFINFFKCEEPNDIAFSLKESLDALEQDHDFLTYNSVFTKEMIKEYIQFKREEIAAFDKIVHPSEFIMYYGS

[4] = molecular target: T4, Plasmodium falciparum glutamine synthetase (rPfGS) (Plasmodium falciparum, UniProt C0H551); experiment: biochemical
T4 construct: gene PF3D7_0922600
T4 sequence (C0H551 1-543): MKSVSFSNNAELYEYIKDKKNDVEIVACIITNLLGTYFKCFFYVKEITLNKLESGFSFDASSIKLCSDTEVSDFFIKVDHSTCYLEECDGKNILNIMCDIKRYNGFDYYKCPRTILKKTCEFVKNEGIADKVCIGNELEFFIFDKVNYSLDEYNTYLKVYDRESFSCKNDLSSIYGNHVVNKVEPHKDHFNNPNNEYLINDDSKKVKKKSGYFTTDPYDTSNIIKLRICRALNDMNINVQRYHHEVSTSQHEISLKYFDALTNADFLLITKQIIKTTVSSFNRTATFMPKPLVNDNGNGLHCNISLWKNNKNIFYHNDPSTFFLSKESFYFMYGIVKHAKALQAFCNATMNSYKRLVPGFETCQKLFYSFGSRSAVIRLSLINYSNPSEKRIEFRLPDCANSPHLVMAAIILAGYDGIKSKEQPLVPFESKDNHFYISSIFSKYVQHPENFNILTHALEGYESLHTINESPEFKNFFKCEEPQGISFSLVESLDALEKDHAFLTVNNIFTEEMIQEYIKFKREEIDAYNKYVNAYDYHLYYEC

Nc1ncnc2c1ncn2[C@@H]1O[C@H](COP(=O)(O)O)[C@@H](O)[C@H]1O [AMP, adenosine monophosphate]
% [1]: 30–40% inhibition at 5 mM

CP(=O)(O)CC[C@H](N)C(=O)O [PPT, Phosphinothricin]
GS enzyme assay, percent activity vs control [2]: ΔI1rPfGS behaved like rPfGS in terms of specific activity (Fig. 3b), inhibition by MSO and PPT (Fig. 3c) | Ki [3]: 8.07 ± 3.31 µM | Ki [4]: 2.31 ± 1.1 µM

C[C@H](N)C(=O)O [alanine]
% [1]: 30–40% inhibition at 5 mM

CS(=N)(=O)CC[C@H](N)C(=O)O (stereo partly drawn) [MSO, L-Methionine sulfoximine]
GS enzyme assay, percent activity vs control [2]: ΔI1rPfGS behaved like rPfGS in terms of specific activity (Fig. 3b), inhibition by MSO and PPT (Fig. 3c) | Ki [3]: 5.44 ± 1.07 µM

— publication PMC10349072, “Distinct evolution of type I glutamine synthetase in Plasmodium and its species-specific requirement” (Nature Communications, 2023)
